These compounds were tested against HCV RNA-dependent RNA polymerase NS5B (Δ21) (Hepatitis C virus genotype 1b, UniProt P26663) (assay: Assay for HCV RNA-dependent RNA polymerase activity (SPA, [3H]-GTP incorporation)). Conditions: read-out: Δ21 Activity (IC50 μM); 50 nM NS5B (Δ21), class symbols.
Assay type: biochemical
Method: Inhibitory activity of the present compounds against HCV RNA-dependent RNA polymerase was assayed according to the methods disclosed in United States Patent Application US2004/038993, content of which is incorporated herein by reference; and those described in Ferrari, E.; Wright-Minogue, J.; Fang, J. W. S.; Baroudy, B. M.; Lau, J. Y. N.; Hong, Z. J. Virol. 1999, 73, 1649.
Briefly, 50 μl reactions containing 20 mM HEPES (pH 7.3), 7.5 mM DTT, 20 units/ml RNasIN, 0.5 μg/ml biotinylated oligoG12, 5 μg/ml polyC, 5 μM GTP, 20 μCi/ml [^3H]-GTP, 10 mM MgCl2, 60 mM NaCl, 100 μg/ml BSA, and 50 nM NS5B (Δ21) were incubated at room temperature for three hours in 96-well plates with or without test compounds. Assay was terminated by the addition of 50 μl 10 mg/ml streptavidin-coated SPA beads supplemented with 100 mM EDTA, and the incorporation of labeled GTP determined by a TopCount Scintillation Counter. IC50 values were calculated from single experiments using 11 serial 2-fold dilutions (0.05-50 μM), and data were considered reliable only when the IC50 value of a positive internal control was within standard deviation range.

HCV RNA-dependent RNA polymerase NS5B (Δ21), sequence (P26663 2420-2989, stated change not applied): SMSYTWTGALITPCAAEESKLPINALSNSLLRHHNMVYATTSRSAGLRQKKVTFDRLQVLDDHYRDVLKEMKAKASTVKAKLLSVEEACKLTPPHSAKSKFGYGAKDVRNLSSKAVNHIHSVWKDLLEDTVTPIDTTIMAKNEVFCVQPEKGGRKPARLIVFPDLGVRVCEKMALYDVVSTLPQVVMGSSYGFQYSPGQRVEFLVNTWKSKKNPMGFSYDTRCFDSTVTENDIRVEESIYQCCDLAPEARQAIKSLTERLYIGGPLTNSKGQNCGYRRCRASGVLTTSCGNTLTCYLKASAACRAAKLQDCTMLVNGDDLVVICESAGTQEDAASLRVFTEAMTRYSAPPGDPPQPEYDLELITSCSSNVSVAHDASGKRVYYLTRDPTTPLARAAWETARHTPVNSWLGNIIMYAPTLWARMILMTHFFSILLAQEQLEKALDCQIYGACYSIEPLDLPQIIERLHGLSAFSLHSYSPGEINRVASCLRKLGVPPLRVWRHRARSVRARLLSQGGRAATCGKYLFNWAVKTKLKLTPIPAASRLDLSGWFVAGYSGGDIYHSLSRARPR

Compound | IC50 [µM]
CCOC(=O)c1cc(C(=O)N[C@H]2CCCC[C@@H]2OCc2ccccc2)n(CC(=O)N[C@H]2CCCC[C@@H]2OCc2ccccc2)n1 [Compound 49] | 0.1 to 1
O=C(Cn1nc(NS(=O)(=O)c2ccc([N+](=O)[O-])cc2)cc1C(=O)N[C@H]1CCCC[C@@H]1OCc1ccccc1)N[C@H]1CCCC[C@@H]1OCc1ccccc1 [Compound 85] | 0.1 to 1
Cc1ccc(OCC2CCCCC2)c(NC(=O)c2cc(C(=O)Nc3nnn[nH]3)nn2CC(=O)N[C@H]2CCCC[C@@H]2OCc2ccccc2)c1 [Compound 125] | 0.1 to 1
CCOC(=O)c1cc(C(=O)N[C@H]2CCCC[C@@H]2OCc2ccccc2)n(CS(=O)(=O)N[C@H]2CCCC[C@@H]2OCc2ccccc2)n1 [Compound 152] | 0.1 to 1
O=C(Cn1nc(NS(=O)(=O)Cc2ccccc2)cc1C(=O)N[C@H]1CCCC[C@@H]1OCc1ccccc1)N[C@H]1CCCC[C@@H]1OCc1ccccc1 [Compound 84] | 0.1 to 1
CCOC(=O)c1cc(C(=O)N[C@@H]2CCCC[C@@H]2OCc2ccccc2)n(CC(=O)N[C@H]2CCCC[C@H]2OCc2ccccc2)n1 [Compound 139] | 0.1 to 1
O=C(Cn1nc(C(=O)NCc2cccc(Cl)c2)cc1C(=O)N[C@H]1CCCC[C@@H]1OCc1ccccc1)N[C@H]1CCCC[C@@H]1OCc1ccccc1 [Compound 70] | 0.1 to 1
O=C(Cn1nc(C(=O)O)cc1C(=O)N[C@H]1CCCC[C@@H]1OCc1ccccc1)N[C@H]1CCCC[C@@H]1NCc1ccccc1 [Compound 166] | 0.1 to 1
O=C(Cn1nc(NS(=O)(=O)c2cc(Cl)ccc2Cl)cc1C(=O)N[C@H]1CCCC[C@@H]1OCc1ccccc1)N[C@H]1CCCC[C@@H]1OCc1ccccc1 [Compound 96] | 0.1 to 1
CC(NC(=O)c1cc(C(=O)N[C@H]2CCCC[C@@H]2OCc2ccccc2)n(CC(=O)N[C@H]2CCCC[C@@H]2OCc2ccccc2)n1)c1ccccc1 (stereo partly drawn) [Compound 95] | 0.1 to 1
O=C(Cn1nc(C(=O)NCc2ccccc2)cc1C(=O)N[C@H]1CCCC[C@@H]1OCc1ccccc1)N[C@H]1CCCC[C@@H]1OCc1ccccc1 [Compound 50] | 0.1 to 1
O=C(Cn1nc(NC(=O)NCc2ccccc2)cc1C(=O)N[C@H]1CCCC[C@@H]1OCc1ccccc1)N[C@H]1CCCC[C@@H]1OCc1ccccc1 [Compound 121] | 0.1 to 1
CCCCOCCCNC(=O)c1cc(C(=O)N[C@H]2CCCC[C@@H]2OCc2ccccc2)n(CC(=O)N[C@H]2CCCC[C@@H]2OCc2ccccc2)n1 [Compound 93] | 0.1 to 1
CN(C(=O)c1cc(C(=O)O)nn1CC(=O)N[C@H]1CCCC[C@@H]1OCc1ccccc1)[C@H]1CCCC[C@@H]1OCc1ccccc1 [Compound 133] | 0.1 to 1
O=C(O)c1cc(C(=O)N[C@H]2CCCC[C@@H]2OCc2ccccc2)n(CS(=O)(=O)N[C@H]2CCCC[C@@H]2OCc2ccccc2)n1 [Compound 57] | 0.1 to 1
O=C(Cn1nc(C=NO)cc1C(=O)N[C@H]1CCCC[C@@H]1OCc1ccccc1)N[C@H]1CCCC[C@@H]1OCc1ccccc1 [Compound 143] | 0.1 to 1
O=C(Cn1nc(NS(=O)(=O)c2cccc3cccnc23)cc1C(=O)N[C@H]1CCCC[C@@H]1OCc1ccccc1)N[C@H]1CCCC[C@@H]1OCc1ccccc1 [Compound 144] | 0.1 to 1
COc1ccc(OC)c(S(=O)(=O)Nc2cc(C(=O)N[C@H]3CCCC[C@@H]3OCc3ccccc3)n(CC(=O)N[C@H]3CCCC[C@@H]3OCc3ccccc3)n2)c1 [Compound 97] | 0.1 to 1
O=C(Cn1nc(C(=O)NCc2ccccc2Cl)cc1C(=O)N[C@H]1CCCC[C@@H]1OCc1ccccc1)N[C@H]1CCCC[C@@H]1OCc1ccccc1 [Compound 81] | 0.1 to 1
O=C(Cn1nc(C(=O)N2c3ccccc3CCc3ccccc32)cc1C(=O)N[C@H]1CCCC[C@@H]1OCc1ccccc1)N[C@H]1CCCC[C@@H]1OCc1ccccc1 [Compound 119] | 0.1 to 1
O=C(Cn1nc(NS(=O)(=O)c2ccc(F)cc2F)cc1C(=O)N[C@H]1CCCC[C@@H]1OCc1ccccc1)N[C@H]1CCCC[C@@H]1OCc1ccccc1 [Compound 79] | 0.1 to 1
CS(=O)(=O)Nc1cc(C(=O)N[C@H]2CCCC[C@@H]2OCc2ccccc2)n(CC(=O)N[C@H]2CCCC[C@@H]2OCc2ccccc2)n1 [Compound 60] | 0.1 to 1
CC(C)(NC(=O)c1cc(C(=O)N[C@H]2CCCC[C@@H]2OCc2ccccc2)n(CC(=O)N[C@H]2CCCC[C@@H]2OCc2ccccc2)n1)c1ccccc1 [Compound 52] | 0.1 to 1
O=C(Cn1nc(C(=O)NC2CCc3ccccc32)cc1C(=O)N[C@H]1CCCC[C@@H]1OCc1ccccc1)N[C@H]1CCCC[C@@H]1OCc1ccccc1 (stereo partly drawn) [Compound 107] | 0.1 to 1
CN(C)c1cccc2c(S(=O)(=O)Nc3cc(C(=O)N[C@H]4CCCC[C@@H]4OCc4ccccc4)n(CC(=O)N[C@H]4CCCC[C@@H]4OCc4ccccc4)n3)cccc12 [Compound 113] | 0.1 to 1
O=C(Cn1nc(C(=O)N2CCN(c3ccccc3)CC2)cc1C(=O)N[C@H]1CCCC[C@@H]1OCc1ccccc1)N[C@H]1CCCC[C@@H]1OCc1ccccc1 [Compound 140] | 0.1 to 1
O=C(Cn1nc(C(=O)NCc2cccnc2)cc1C(=O)N[C@H]1CCCC[C@@H]1OCc1ccccc1)N[C@H]1CCCC[C@@H]1OCc1ccccc1 [Compound 142] | 0.1 to 1
O=C(Cn1nc(C(=O)NCc2ccc(Cl)cc2Cl)cc1C(=O)N[C@H]1CCCC[C@@H]1OCc1ccccc1)N[C@H]1CCCC[C@@H]1OCc1ccccc1 [Compound 148] | 0.1 to 1
O=C(Cn1nc(NS(=O)(=O)c2cc(Cl)cc(Cl)c2O)cc1C(=O)N[C@H]1CCCC[C@@H]1OCc1ccccc1)N[C@H]1CCCC[C@@H]1OCc1ccccc1 [Compound 108] | 0.1 to 1
O=C(Cn1nc(C(=O)N2CCCC3CC=CC=C32)cc1C(=O)N[C@H]1CCCC[C@@H]1OCc1ccccc1)N[C@H]1CCCC[C@@H]1OCc1ccccc1 (stereo partly drawn) [Compound 86] | 0.1 to 1

Same assay, conditions: Δ21 Activity (IC50 μM), 50 nM NS5B (Δ21), class symbols

Compound | IC50 [µM]
O=C(Cn1nc(C(=O)O)cc1C(=O)N[C@H]1CCCC[C@@H]1OCc1ccccc1)NC1CCC[C@@H]1Sc1ccccc1 (stereo partly drawn) [Compound 169] | > 1
COc1ccc(NC(=O)c2cc(C(=O)Nc3ccccc3OCc3ccccc3)n(CC(=O)N[C@H]3CCCC[C@@H]3OCc3ccccc3)n2)cc1 [Compound 29] | 0.05 to 0.1
O=C(Cn1nc(C(=O)NCC(c2ccccc2)c2ccccc2)cc1C(=O)N[C@H]1CCCC[C@@H]1OCc1ccccc1)NC1CCCC[C@@H]1OCc1ccccc1 (stereo partly drawn) [Compound 204] | > 1
O=C(Cn1nc(C(=O)O)cc1C(=O)Nc1ccc(F)cc1OCC1CCCCC1)N[C@H]1CCCC[C@@H]1OCc1ccccc1 [Compound 10] | < 0.05
O=C(Cn1nc(-c2cccs2)cc1C(=O)N[C@H]1CCCC[C@@H]1OCc1ccccc1)N[C@H]1CCCC[C@@H]1OCc1ccccc1 [Compound 170] | > 1
O=C(Cn1nc(C(=O)Nc2ccccc2-c2ccccc2)cc1C(=O)N[C@H]1CCCC[C@@H]1OCc1ccccc1)N[C@H]1CCCC[C@@H]1OCc1ccccc1 [Compound 179] | > 1
N#Cc1cc(C(=O)N[C@H]2CCCC[C@@H]2OCc2ccccc2)n(CC(=O)N[C@H]2CCCC[C@@H]2OCc2ccccc2)n1 (stereo in doubt) [Compound 187, 2-[(2-benzyloxy-cyclohexylcarbamoyl)-methyl]-5-cyano-2H-pyrazole-3-carboxylic acid (2-benzyloxy-cyclohexyl)-amide] | > 1
O=C(Cn1nc(NS(=O)(=O)c2ccc(Br)cc2)cc1C(=O)N[C@H]1CCCC[C@@H]1OCc1ccccc1)N[C@H]1CCCC[C@@H]1OCc1ccccc1 [Compound 13] | < 0.05
O=C(Cn1nc(C(=O)NCCc2ccccn2)cc1C(=O)N[C@H]1CCCC[C@@H]1OCc1ccccc1)N[C@H]1CCCC[C@@H]1OCc1ccccc1 [Compound 176] | > 1
C[C@@H](NC(=O)c1cc(C(=O)N[C@H]2CCCC[C@@H]2OCc2ccccc2)n(CC(=O)N[C@H]2CCCC[C@@H]2OCc2ccccc2)n1)c1cccc2ccccc12 [Compound 7] | < 0.05
CCOC(=O)c1cc(C(=O)N(C)[C@H]2CCCC[C@@H]2OCc2ccccc2)n(CC(=O)N(C)C2CCCC[C@@H]2OCc2ccccc2)n1 (stereo partly drawn) [Compound 210] | > 1
CC(C)(O)c1cc(C(=O)N[C@H]2CCCC[C@@H]2OCc2ccccc2)n(CC(=O)N[C@H]2CCCC[C@@H]2OCc2ccccc2)n1 [Compound 190] | > 1
CCOC(=O)c1cc(C(=O)N[C@H]2CCCC[C@@H]2NCc2ccccc2)n(CC(=O)N[C@H]2CCCC[C@@H]2OCc2ccccc2)n1 [Compound 174] | > 1
C=CCOc1ccccc1NC(=O)Cn1nc(C(=O)O)cc1C(=O)N[C@H]1CCCC[C@@H]1OCc1ccccc1 [Compound 171] | > 1
Cc1ccc(OCc2ccccc2)c(NC(=O)c2cc(-c3nnn[nH]3)nn2CC(=O)N[C@H]2CCCC[C@@H]2OCc2ccccc2)c1 [Compound 1] | < 0.05

Same assay, conditions: Δ21 Activity (IC50 μM), 50 nM NS5B (Δ21), numeric values

Compound | IC50 [µM]
COc1cccc(NC(=O)c2cc(C(=O)N[C@H]3CCCC[C@@H]3OCc3ccccc3)n(CC(=O)N[C@H]3CCCC[C@@H]3OCc3ccccc3)n2)c1 [drawing 255] | 0.045
O=C(Cn1nc(C(=O)O)cc1C(=O)Nc1cc(Br)ccc1OCC1CCCCC1)N[C@H]1CCCC[C@@H]1OCc1ccccc1 [drawing 251] | 0.037
O=C(Cn1nc(NS(=O)(=O)c2ccc(Cl)cc2)cc1C(=O)N[C@H]1CCCC[C@@H]1OCc1ccccc1)N[C@H]1CCCC[C@@H]1OCc1ccccc1 [drawing 250] | 0.036

— US7425640B2, “Substituted 5-carboxyamide pyrazoles and [1,2,4]triazoles as antiviral agents” (priority 2004, dated 2008)
